From US9789111B2, “Casein kinase 1δ (CK 1δ) inhibitors” (Electrophoretics Limited, priority 2010, dated 2017)

What was measured:
[1] = tested on: total Tau in SH-SY5Y-TMHT cells; assay: Western Blot of total Tau; format: cell-based, human; settings: 10 μM
Protocol: SH-SY5Y-TMHT cells are kept in culture medium (DMEM medium, 10% FCS, 1% NEAA, 1% L-Glutamine, 100 μg/ml Gentamycin, 300 μg/ml Geneticin G-418) for 2 days until 80-90% confluency. Cells are then differentiated in culture medium supplemented with 10 μM retinoic acid (RA) for 7 days changing medium every 2 to 3 days. Differentiated cells are seeded onto 6-well plates and 96-well plates at a cell density of 1.25×10^6 and 8×10^5 cells per well, respectively. On day 8 post-differentiation, the test compounds, reference compounds and vehicle control were added to the culture medium. After 6 h of compound exposure one plate of cells is subjected to a MTT assay to evaluate the effect of test and reference items on cell viability. Remaining wells are washed once with cold PBS and harvested in 300 μl RIPA-Buffer [50 mM Tris pH 7.4, 1% Nonident P40, 0.25% Na-deoxy-cholate, 150 mM NaCl, 1 mM EDTA, 1 μM NaF, 1 μM Na-ortho-vanadate, 80 mM Glycerophosphate, supplemented with freshly added protease (Calbiochem) and phosphatase (Sigma) inhibitor cocktail]. The cell suspension is transferred into a 1.5 ml tube and additionally lysed by sonication on ice. An aliquot of 20 μl is taken for the determination of the protein concentration (BCA assay). Subsequently, the lysates are snap frozen and stored at −80° C. until shipment.
Lysates of treated cells were prepared in Laemmli buffer and 10 μg loaded into each lane of a 10% Nu-PAGE gel (Invitrogen, UK). Samples were run until the coomassie blue dye fromt was within 1 cm of the bottom of the gel. The separated proteins were transferred onto nitrocellulose and blots developed using antibodies specific for total tau (Polyclonal Rabbit Anti-Human Tau, Dako, UK (cat # A0024)) and phopho-Threonine 231 (Tau (Phospho-Thr231) Antibody, Signalway Antibody, USA (cat # 11110)) respectively. In each case the bound antibody was detected using ECL Rabbit IgG, HRP-Linked (from donkey) (GE Healthcare, UK (cat # NA934))

CK1g3 = CK1g3 (Homo sapiens, UniProt Q9Y6M4); assay: kinase inhibition assay panel; format: biochemical
PKCa = PKCa (Homo sapiens, UniProt P17252); assay: kinase inhibition assay panel; format: biochemical
Protocol: (§1) Base Reaction buffer; 20 mM Hepes (pH 7.5), 10 mM MgCl2, 1 mM EGTA, 0.02% Brij35, 0.02 mg/ml BSA, 0.1 mM Na3VO4, 2 mM DTT, 1% DMSO
(§2) It should be noted that required cofactors are added individually to each kinase reaction.
(§3) • 1. Prepare indicated substrate in freshly prepared Base Reaction Buffer as described above • 2. Deliver any required cofactors to the substrate solution • 3. Deliver indicated kinase into the substrate solution and gently mix • 4. Deliver compounds in DMSO into the kinase reaction mixture • 5. Deliver ^33P-ATP (specific activity 0.01 μCi/μl final) into the reaction mixture to initiate the reaction • 6. Incubate kinase reaction for 120 min. at room temperature • 7. Reactions are spotted onto P81 ion exchange paper (Whatman #3698-915) • 8. Wash filters extensively in 0.75% Phosphoric acid Kinase Information: • CK1δ—Genbank Accession # NP_620693 • Recombinant human full-length construct. GST-tagged, expressed in insect cells. • Final concentration in assay=4 nM • Substrate: CK1tide • Substrate sequence: [KRRRAL[pS]VASLPGL] • Final substrate concentration in assay=20 μM • It should be noted that no additional cofactors are added to the reaction mixture.

ROCK1 = ROCK1 (Homo sapiens, UniProt Q13464); assay: kinase inhibition assay panel; format: biochemical
Protocol: as §1, §2, §3

JNK2 = JNK2 (Homo sapiens, UniProt P45984); assay: kinase inhibition assay panel; format: biochemical
Protocol: as §1, §2, §3

CDK5/p25 = CDK5/p25 (Homo sapiens, UniProt Q00535); assay: kinase inhibition assay panel; format: biochemical
Protocol: as §1, §2, §3

PDK1/PDPK1 = target: T1, PDK1/PDPK1 (Homo sapiens, UniProt O15530); assay: kinase inhibition assay panel; format: biochemical
T1 sequence (O15530 1-556): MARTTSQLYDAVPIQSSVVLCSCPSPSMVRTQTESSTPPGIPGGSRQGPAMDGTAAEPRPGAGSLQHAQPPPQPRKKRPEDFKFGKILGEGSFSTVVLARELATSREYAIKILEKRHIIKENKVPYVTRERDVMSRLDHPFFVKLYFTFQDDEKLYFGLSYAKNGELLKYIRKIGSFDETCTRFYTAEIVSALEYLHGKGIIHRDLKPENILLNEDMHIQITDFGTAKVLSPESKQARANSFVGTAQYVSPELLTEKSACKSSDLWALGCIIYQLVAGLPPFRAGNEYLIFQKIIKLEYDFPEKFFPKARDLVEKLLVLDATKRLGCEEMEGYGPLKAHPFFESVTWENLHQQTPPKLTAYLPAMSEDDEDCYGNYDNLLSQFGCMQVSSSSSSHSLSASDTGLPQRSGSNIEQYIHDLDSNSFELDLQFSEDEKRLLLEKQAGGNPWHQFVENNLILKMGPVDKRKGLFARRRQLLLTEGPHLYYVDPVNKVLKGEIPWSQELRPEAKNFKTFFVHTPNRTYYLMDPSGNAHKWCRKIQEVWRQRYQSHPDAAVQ
Protocol: as §1, §2, §3

CK1g1 = CK1g1 (Homo sapiens, UniProt Q9HCP0); assay: kinase inhibition assay panel; format: biochemical
CK1g1, sequence (Q9HCP0 whole entry): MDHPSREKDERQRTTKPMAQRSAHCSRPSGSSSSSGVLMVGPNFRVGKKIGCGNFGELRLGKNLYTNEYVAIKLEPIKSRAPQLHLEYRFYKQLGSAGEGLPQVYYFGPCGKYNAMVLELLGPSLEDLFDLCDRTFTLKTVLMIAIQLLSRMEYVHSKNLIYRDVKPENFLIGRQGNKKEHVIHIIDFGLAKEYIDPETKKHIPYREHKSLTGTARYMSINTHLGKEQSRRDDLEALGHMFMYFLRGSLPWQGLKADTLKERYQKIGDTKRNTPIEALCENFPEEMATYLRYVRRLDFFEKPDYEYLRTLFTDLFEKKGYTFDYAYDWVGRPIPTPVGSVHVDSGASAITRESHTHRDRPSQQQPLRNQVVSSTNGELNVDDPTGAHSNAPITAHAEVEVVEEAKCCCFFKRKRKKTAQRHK

ROCK1, sequence (Q13464 whole entry, species assumed): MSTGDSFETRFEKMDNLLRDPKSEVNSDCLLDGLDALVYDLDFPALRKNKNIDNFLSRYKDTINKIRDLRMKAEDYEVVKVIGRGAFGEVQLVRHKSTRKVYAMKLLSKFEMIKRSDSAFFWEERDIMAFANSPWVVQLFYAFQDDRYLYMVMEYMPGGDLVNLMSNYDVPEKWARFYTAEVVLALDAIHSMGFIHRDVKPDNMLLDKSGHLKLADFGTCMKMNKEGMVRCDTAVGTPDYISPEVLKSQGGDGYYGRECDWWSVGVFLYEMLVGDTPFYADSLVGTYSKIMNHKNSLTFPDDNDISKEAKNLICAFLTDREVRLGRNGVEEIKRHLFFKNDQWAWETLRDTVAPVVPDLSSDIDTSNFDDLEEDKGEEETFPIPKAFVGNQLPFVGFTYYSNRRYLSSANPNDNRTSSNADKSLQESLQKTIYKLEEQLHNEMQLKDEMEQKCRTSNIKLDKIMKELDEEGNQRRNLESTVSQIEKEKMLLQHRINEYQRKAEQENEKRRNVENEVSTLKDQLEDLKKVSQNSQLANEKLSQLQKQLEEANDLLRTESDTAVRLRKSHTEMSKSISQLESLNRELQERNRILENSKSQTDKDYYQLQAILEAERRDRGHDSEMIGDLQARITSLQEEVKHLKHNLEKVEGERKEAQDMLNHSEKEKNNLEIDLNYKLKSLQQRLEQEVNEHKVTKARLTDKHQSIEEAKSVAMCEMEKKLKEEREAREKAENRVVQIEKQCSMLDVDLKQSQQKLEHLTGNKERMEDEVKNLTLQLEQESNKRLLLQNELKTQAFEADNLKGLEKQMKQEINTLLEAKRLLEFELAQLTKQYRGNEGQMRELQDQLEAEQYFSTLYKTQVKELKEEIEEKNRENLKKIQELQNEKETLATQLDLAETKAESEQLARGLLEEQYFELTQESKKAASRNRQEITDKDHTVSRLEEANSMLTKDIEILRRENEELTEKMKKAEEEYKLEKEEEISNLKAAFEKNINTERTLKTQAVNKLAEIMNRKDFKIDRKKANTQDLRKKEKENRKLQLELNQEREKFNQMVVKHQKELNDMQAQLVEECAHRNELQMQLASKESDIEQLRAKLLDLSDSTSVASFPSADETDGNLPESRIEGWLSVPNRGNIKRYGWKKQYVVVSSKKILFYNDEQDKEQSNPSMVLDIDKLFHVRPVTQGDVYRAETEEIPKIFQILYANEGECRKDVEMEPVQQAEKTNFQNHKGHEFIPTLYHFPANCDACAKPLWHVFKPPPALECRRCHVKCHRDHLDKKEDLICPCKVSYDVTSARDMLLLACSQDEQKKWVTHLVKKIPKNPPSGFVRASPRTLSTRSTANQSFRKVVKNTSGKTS
CK1g3, sequence (Q9Y6M4 whole entry): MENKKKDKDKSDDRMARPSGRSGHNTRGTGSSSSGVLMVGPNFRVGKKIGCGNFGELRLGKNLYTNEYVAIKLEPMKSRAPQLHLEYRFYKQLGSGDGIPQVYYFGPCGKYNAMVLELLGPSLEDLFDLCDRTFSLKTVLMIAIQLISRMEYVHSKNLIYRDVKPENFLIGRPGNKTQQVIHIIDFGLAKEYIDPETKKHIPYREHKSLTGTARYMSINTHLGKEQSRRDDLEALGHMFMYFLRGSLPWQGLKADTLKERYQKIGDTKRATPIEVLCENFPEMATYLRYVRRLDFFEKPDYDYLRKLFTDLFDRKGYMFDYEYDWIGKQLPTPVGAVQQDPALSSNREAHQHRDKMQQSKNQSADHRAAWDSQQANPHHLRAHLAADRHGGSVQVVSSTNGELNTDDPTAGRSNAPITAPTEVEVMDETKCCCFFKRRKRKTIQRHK
JNK2, sequence (P45984 whole entry, species assumed): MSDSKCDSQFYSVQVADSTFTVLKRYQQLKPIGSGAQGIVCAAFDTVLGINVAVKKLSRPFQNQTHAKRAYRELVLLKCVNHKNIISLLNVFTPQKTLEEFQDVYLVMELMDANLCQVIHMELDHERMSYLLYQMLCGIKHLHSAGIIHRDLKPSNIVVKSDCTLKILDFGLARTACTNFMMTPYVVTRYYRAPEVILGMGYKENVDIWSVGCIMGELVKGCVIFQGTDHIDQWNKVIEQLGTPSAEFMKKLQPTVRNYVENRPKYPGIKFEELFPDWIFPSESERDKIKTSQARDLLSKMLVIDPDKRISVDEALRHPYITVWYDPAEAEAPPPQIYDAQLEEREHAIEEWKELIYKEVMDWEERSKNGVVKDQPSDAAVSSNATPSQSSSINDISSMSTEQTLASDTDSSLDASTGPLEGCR
CDK5/p25, sequence (Q00535 whole entry, species assumed): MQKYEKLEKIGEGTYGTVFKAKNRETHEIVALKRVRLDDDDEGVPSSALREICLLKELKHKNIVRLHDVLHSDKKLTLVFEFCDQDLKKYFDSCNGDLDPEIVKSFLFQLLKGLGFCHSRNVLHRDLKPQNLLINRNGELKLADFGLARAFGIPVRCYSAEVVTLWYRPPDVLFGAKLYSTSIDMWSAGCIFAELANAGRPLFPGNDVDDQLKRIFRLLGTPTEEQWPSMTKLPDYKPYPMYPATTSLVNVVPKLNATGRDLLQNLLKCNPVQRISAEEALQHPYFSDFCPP
CDK5/p25, sequence (Q15078 99-307 partner limits assumed, species assumed): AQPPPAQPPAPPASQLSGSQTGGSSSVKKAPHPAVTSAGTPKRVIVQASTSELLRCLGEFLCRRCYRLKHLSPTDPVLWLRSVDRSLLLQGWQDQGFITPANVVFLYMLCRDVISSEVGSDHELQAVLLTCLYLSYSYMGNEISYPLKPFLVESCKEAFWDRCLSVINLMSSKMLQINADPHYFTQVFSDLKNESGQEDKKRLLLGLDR

Nc1ncc(-c2nc3ccccc3o2)c(-c2ccncc2)n1 [Compound 324, 5-(1,3-benzoxazol-2-yl)-4-(pyridin-4-yl)pyrimidin-2-amine]
detectable levels of total Tau [1]: no significant difference | inhibition of CK1g3 (CK1g3): lower than 40% | inhibition of PKCa (PKCa): lower than 40% | inhibition of ROCK1 (ROCK1): lower than 40% | inhibition of JNK2 (JNK2): lower than 40% | inhibition of CDK5/p25 (CDK5/p25): lower than 40% | inhibition of PDK1/PDPK1 (PDK1/PDPK1): lower than 40% | inhibition of CK1g1 (CK1g1): lower than 40%

NC(=O)c1c(N)c(C(=O)c2ccc(F)cc2)n2ccccc12 [Compound 987, 2-amino-3-[(4-fluorophenyl)carbonyl]indolizine-1-carboxamide]
detectable levels of total Tau [1]: no significant difference | inhibition of CK1g3 (CK1g3): lower than 40% | inhibition of PKCa (PKCa): lower than 40% | inhibition of ROCK1 (ROCK1): lower than 40% | inhibition of JNK2 (JNK2): lower than 40% | inhibition of CDK5/p25 (CDK5/p25): lower than 40% | inhibition of PDK1/PDPK1 (PDK1/PDPK1): lower than 40% | inhibition of CK1g1 (CK1g1): lower than 40%
